# Test results as given in patent US20260217717A1, “CDK2 INHIBITORS” (BLUEPRINT MEDICINES CORPORATION, priority 2023, published 2026).
# Key:
# CDK2/Cyclin E = biological target: T1, CDK2/Cyclin E (Homo sapiens, UniProt P24941); test: CDK2/Cyclin E enzymatic phosphorylation assay (Caliper mobility shift); format: biochemical; details: read-out: Enzyme CDK2/cyclin E IC50; note: 1.0 mM ATP or ATP Km
# T1 construct: purchased Eurofins 14-475
# Procedure: (§1) Reactions proceeded until between 10% to 20% total peptides were phosphorylated at room temperature (25° C.) and were terminated with 35 mM 2,2′,2″,2′″-(ethane-1,2-diyldinitrilo)tetraacetic acid (EDTA). Product was detected using the Caliper mobility shift detection method where the phosphorylated peptide (product) and substrate were electrophoretically separated and measured. Percent activity was plotted against log concentration of compound and points to generate an apparent IC50.
# CDK1/Cyclin B1 = biological target: T2, CDK1/Cyclin B1 (Homo sapiens, UniProt P06493); test: CDK1/Cyclin B1 enzymatic phosphorylation assay (Caliper mobility shift); format: biochemical; details: read-out: Enzyme CDK1/cyclin B1 IC50
# T2 construct: GST; purchased BPS 40454
# Procedure: as §1
# T2 sequence (P06493 whole entry): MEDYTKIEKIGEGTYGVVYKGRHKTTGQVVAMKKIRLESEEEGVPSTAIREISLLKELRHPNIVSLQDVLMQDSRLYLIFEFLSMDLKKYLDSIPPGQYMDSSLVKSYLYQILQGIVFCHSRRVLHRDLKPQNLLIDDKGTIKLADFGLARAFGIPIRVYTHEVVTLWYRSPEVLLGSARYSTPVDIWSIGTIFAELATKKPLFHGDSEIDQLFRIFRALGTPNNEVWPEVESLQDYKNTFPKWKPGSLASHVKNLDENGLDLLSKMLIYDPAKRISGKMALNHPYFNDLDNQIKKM
# T2 sequence (P14635 whole entry partner): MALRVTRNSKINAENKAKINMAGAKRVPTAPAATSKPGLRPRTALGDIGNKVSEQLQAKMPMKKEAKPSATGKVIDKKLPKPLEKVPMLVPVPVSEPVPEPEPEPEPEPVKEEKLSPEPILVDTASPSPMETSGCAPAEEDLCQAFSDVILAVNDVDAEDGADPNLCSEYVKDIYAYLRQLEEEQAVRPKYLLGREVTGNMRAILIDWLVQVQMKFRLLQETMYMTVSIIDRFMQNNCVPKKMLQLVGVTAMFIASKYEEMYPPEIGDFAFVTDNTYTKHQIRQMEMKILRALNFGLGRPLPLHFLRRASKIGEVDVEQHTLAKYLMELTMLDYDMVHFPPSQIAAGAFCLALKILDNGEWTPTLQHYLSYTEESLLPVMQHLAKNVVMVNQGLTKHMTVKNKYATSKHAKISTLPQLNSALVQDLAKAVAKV
IC50 (CDK2/Cyclin E) [µM],IC50 (CDK1/Cyclin B1) [µM],Structure (SMILES)
0.0006,0.113,"CC(C)c1cc(Nc2cnc3cnn(CC4CCOCC4)c3n2)n[nH]1 [Example 30, N-(5-isopropyl-1H-pyrazol-3-yl)-1-((tetrahydro-2H-pyran-4-yl)methyl)-1H-pyrazolo[3,4-b]pyrazin-6-amine]"
0.0001,0.0578,"C[C@@H](c1cccnc1)n1ncc2ncc(Nc3cc(C4CC4)[nH]n3)nc21 [Example 31, (S)-N-(5-cyclopropyl-1H-pyrazol-3-yl)-1-(1-(pyridin-3-yl)ethyl)-1H-pyrazolo[3,4-b]pyrazin-6-amine]"
0.0019,0.465,"CCc1cc(Nc2cnc3cnn([C@@H](C)c4cccnc4)c3n2)n[nH]1 [Example 32, (S)-N-(5-ethyl-1H-pyrazol-3-yl)-1-(1-(pyridin-3-yl)ethyl)-1H-pyrazolo[3,4-b]pyrazin-6-amine]"
0.0064,1.42,"C[C@@H](c1cccnc1)n1ncc2ncc(Nc3cc(C4COC4)[nH]n3)nc21 [Example 33, (S)-N-(5-(oxetan-3-yl)-1H-pyrazol-3-yl)-1-(1-(pyridin-3-yl)ethyl)-1H-pyrazolo[3,4-b]pyrazin-6-amine]"
0.0108,1.9,"c1cncc(Cn2ncc3ncc(Nc4cc(C5COC5)[nH]n4)nc32)c1 [Example 34, N-(5-(oxetan-3-yl)-1H-pyrazol-3-yl)-1-(pyridin-3-ylmethyl)-1H-pyrazolo[3,4-b]pyrazin-6-amine]"
0.0113,0.877,"c1nc2cnn(CC3CCOCC3)c2nc1Nc1cc(C2COC2)[nH]n1 [Example 35, N-(5-(oxetan-3-yl)-1H-pyrazol-3-yl)-1-((tetrahydro-2H-pyran-4-yl)methyl)-1H-pyrazolo[3,4-b]pyrazin-6-amine]"
0.0005,0.0836,"c1nc2cnn(CC3CCOCC3)c2nc1Nc1cc(C2CC2)[nH]n1 [Example 36, N-(5-cyclopropyl-1H-pyrazol-3-yl)-1-((tetrahydro-2H-pyran-4-yl)methyl)-1H-pyrazolo[3,4-b]pyrazin-6-amine]"
0.0054,0.533,"CCc1cc(Nc2cnc3cnn(CC4CCOCC4)c3n2)n[nH]1 [Example 37, N-(5-ethyl-1H-pyrazol-3-yl)-1-((tetrahydro-2H-pyran-4-yl)methyl)-1H-pyrazolo[3,4-b]pyrazin-6-amine]"
0.0035,0.509,"O[C@H]1CC[C@H](n2ncc3ncc(Nc4cc(C5COC5)[nH]n4)nc32)CC1 [Example 38, (1r,4r)-4-(6-((5-(oxetan-3-yl)-1H-pyrazol-3-yl)amino)-1H-pyrazolo[3,4-b]pyrazin-1-yl)cyclohexan-1-ol]"
0.09,7.65,"Cc1cc(Nc2cnc3cnn([C@H]4CC[C@H](O)CC4)c3n2)n[nH]1 [Example 39, (1r,4r)-4-(6-((5-methyl-1H-pyrazol-3-yl)amino)-1H-pyrazolo[3,4-b]pyrazin-1-yl)cyclohexan-1-ol]"
0.0003,0.093,"CC(C)c1cc(Nc2cnc3cnn([C@H](C)c4cccnc4)c3n2)n[nH]1 [Example 40, (R)-N-(5-isopropyl-1H-pyrazol-3-yl)-1-(1-(pyridin-3-yl)ethyl)-1H-pyrazolo[3,4-b]pyrazin-6-amine]"
0.0017,0.334,"C[C@@H](C1CCOCC1)n1ncc2ncc(Nc3cc(C4COC4)[nH]n3)nc21 [Example 41, (S)-N-(5-(oxetan-3-yl)-1H-pyrazol-3-yl)-1-(1-(tetrahydro-2H-pyran-4-yl)ethyl)-1H-pyrazolo[3,4-b]pyrazin-6-amine]"
0.0023,0.592,"C[C@@H](c1ccccc1)n1ncc2ncc(Nc3cc(C4COC4)[nH]n3)nc21 [Example 42, (S)-N-(5-(oxetan-3-yl)-1H-pyrazol-3-yl)-1-(1-phenylethyl)-1H-pyrazolo[3,4-b]pyrazin-6-amine]"
0.0214,1.65,"C[C@H](C1CCOCC1)n1ncc2ncc(Nc3cc(C4COC4)[nH]n3)nc21 [Example 43, (R)-N-(5-(oxetan-3-yl)-1H-pyrazol-3-yl)-1-(1-(tetrahydro-2H-pyran-4-yl)ethyl)-1H-pyrazolo[3,4-b]pyrazin-6-amine]"
0.0185,2.22,"c1ccc(Cn2ncc3ncc(Nc4cc(C5COC5)[nH]n4)nc32)cc1 [Example 44, 1-benzyl-N-(5-(oxetan-3-yl)-1H-pyrazol-3-yl)-1H-pyrazolo[3,4-b]pyrazin-6-amine]"
0.0053,1.38,"Fc1ccccc1Cn1ncc2ncc(Nc3cc(C4COC4)[nH]n3)nc21 [Example 45, 1-(2-fluorobenzyl)-N-(5-(oxetan-3-yl)-1H-pyrazol-3-yl)-1H-pyrazolo[3,4-b]pyrazin-6-amine]"
0.0079,1.06,"Fc1cccc(Cn2ncc3ncc(Nc4cc(C5COC5)[nH]n4)nc32)c1 [Example 46, 1-(3-fluorobenzyl)-N-(5-(oxetan-3-yl)-1H-pyrazol-3-yl)-1H-pyrazolo[3,4-b]pyrazin-6-amine]"

IC50 (CDK2/Cyclin E) [µM],IC50 (CDK1/Cyclin B1) [µM],Structure (SMILES)
0.016,1.38,"Fc1ccc(Cn2ncc3ncc(Nc4cc(C5COC5)[nH]n4)nc32)cc1 [Example 47, 1-(4-fluorobenzyl)-N-(5-(oxetan-3-yl)-1H-pyrazol-3-yl)-1H-pyrazolo[3,4-b]pyrazin-6-amine]"
0.0131,1.84,"Fc1ccc(Cn2ncc3ncc(Nc4cc(C5COC5)[nH]n4)nc32)cn1 [Example 48, 1-((6-fluoropyridin-3-yl)methyl)-N-(5-(oxetan-3-yl)-1H-pyrazol-3-yl)-1H-pyrazolo[3,4-b]pyrazin-6-amine]"
0.0028,0.644,"Fc1ncccc1Cn1ncc2ncc(Nc3cc(C4COC4)[nH]n3)nc21 [Example 49, 1-((2-fluoropyridin-3-yl)methyl)-N-(5-(oxetan-3-yl)-1H-pyrazol-3-yl)-1H-pyrazolo[3,4-b]pyrazin-6-amine]"
0.0448,3.06,"Fc1cncc(Cn2ncc3ncc(Nc4cc(C5COC5)[nH]n4)nc32)c1 [Example 50, 1-((5-fluoropyridin-3-yl)methyl)-N-(5-(oxetan-3-yl)-1H-pyrazol-3-yl)-1H-pyrazolo[3,4-b]pyrazin-6-amine]"
0.0018,0.422,"C[C@@H](c1cccc(F)c1)n1ncc2ncc(Nc3cc(C4COC4)[nH]n3)nc21 [Example 51, (S)-1-(1-(3-fluorophenyl)ethyl)-N-(5-(oxetan-3-yl)-1H-pyrazol-3-yl)-1H-pyrazolo[3,4-b]pyrazin-6-amine]"
0.0002,0.104,"C[C@@H](c1ccccc1F)n1ncc2ncc(Nc3cc(C4COC4)[nH]n3)nc21 [Example 52, (S)-1-(1-(2-fluorophenyl)ethyl)-N-(5-(oxetan-3-yl)-1H-pyrazol-3-yl)-1H-pyrazolo[3,4-b]pyrazin-6-amine]"
0.0019,0.33,"C[C@@H](c1ccc(F)cc1)n1ncc2ncc(Nc3cc(C4COC4)[nH]n3)nc21 [Example 53, (S)-1-(1-(4-fluorophenyl)ethyl)-N-(5-(oxetan-3-yl)-1H-pyrazol-3-yl)-1H-pyrazolo[3,4-b]pyrazin-6-amine]"
0.026,3.67,"Cc1cc(Nc2cnc3cnn([C@@H](C)C4CCOCC4)c3n2)n[nH]1 [Example 54, (S)-N-(5-methyl-1H-pyrazol-3-yl)-1-(1-(tetrahydro-2H-pyran-4-yl)ethyl)-1H-pyrazolo[3,4-b]pyrazin-6-amine]"
0.002,0.951,"C[C@@H](c1ccccn1)n1ncc2ncc(Nc3cc(C4COC4)[nH]n3)nc21 [Example 55, (S)-N-(5-(oxetan-3-yl)-1H-pyrazol-3-yl)-1-(1-(pyridin-2-yl)ethyl)-1H-pyrazolo[3,4-b]pyrazin-6-amine]"
0.003,0.709,"Cc1cc(Nc2cnc3cnn([C@@H](C)c4cccnc4F)c3n2)n[nH]1 [Example 56, (S)-1-(1-(2-fluoropyridin-3-yl)ethyl)-N-(5-methyl-1H-pyrazol-3-yl)-1H-pyrazolo[3,4-b]pyrazin-6-amine]"
0.001,0.174,"CC(C)c1cc(Nc2cnc3cnn([C@H]4CC[C@H](O)CC4)c3n2)n[nH]1 [Example 57, (1r,4r)-4-(6-((5-isopropyl-1H-pyrazol-3-yl)amino)-1H-pyrazolo[3,4-b]pyrazin-1-yl)cyclohexan-1-ol]"
0.0035,0.237,"CC(=O)N1CCC(n2ncc3ncc(Nc4cc(C(C)C)[nH]n4)nc32)CC1 [Example 58, 1-(4-(6-((5-isopropyl-1H-pyrazol-3-yl)amino)-1H-pyrazolo[3,4-b]pyrazin-1-yl)piperidin-1-yl)ethan-1-one]"
0.0148,2.37,"CC(=O)N1CCC[C@H](n2ncc3ncc(Nc4cc(C(C)C)[nH]n4)nc32)C1 [Example 59, (S)-1-(3-(6-((5-isopropyl-1H-pyrazolo-3-yl)amino)-1H-pyrazolo[3,4-b]pyrazin-1-yl)piperidin-1-yl)ethan-1-one]"
0.0079,1.57,"CC(C)c1cc(Nc2cnc3cnn(C[C@@H](C)CO)c3n2)n[nH]1 [Example 60, (R)-3-(6-((5-isopropyl-1H-pyrazol-3-yl)amino)-1H-pyrazolo[3,4-b]pyrazin-1-yl)-2-methylpropan-1-ol]"
0.0132,1.88,"CC(C)c1cc(Nc2cnc3cnn(C[C@H](C)CO)c3n2)n[nH]1 [Example 61, (S)-3-(6-((5-isopropyl-1H-pyrazol-3-yl)amino)-1H-pyrazolo[3,4-b]pyrazin-1-yl)-2-methylpropan-1-ol]"
0.016,1.93,"CC(C)c1cc(Nc2cnc3cnn(CC4CCNCC4)c3n2)n[nH]1 [Example 62, N-(5-isopropyl-1H-pyrazol-3-yl)-1-(piperidin-4-ylmethyl)-1H-pyrazolo[3,4-b]pyrazin-6-amine]"
